Experimental data from patent US4192799A, “Conjugates formed by reacting a prostaglandin mimic compound with a carrier molecule” (The Upjohn Company, priority 1977, dated 1980).
Where two headings read alike, the source gives them in different places.

Experiments:
[1] = test system: antiserum raised against 9-deoxy-9-methylene PGF2 (BSA Conjugate); experiment: RIA cross-reactivity of antiserum raised against 9-deoxy-9-methylene PGF2, BSA conjugate; type: binding, Albino New Zealand rabbits; conditions: relative to PGE2; ng required to displace 50% of [3H]PGE2
Method: (§1) Five milligrams of KLH-PGE2 mimic conjugate is added to 2.25 ml. of sterile saline (0.9%) and 2.25 ml. of Freund's complete adjuvant and blended. 1.0 ml. of this mixture is injected subcutaneously at 20-30 sites on the flanks of four Albino New Zealand rabbits of 2-4 kg. mass. Each rabbit receives a dose of about 1 mg. On the same day, 1.0 ml. of attenuated pertussis vaccine is injected intramuscularly at four sites on the hindquarters of each rabbit.
Antibodies against other PG mimics can be elicited by substituting equal amounts of other conjugates, such as those of preparations 1 through 9, for the KLH-PGE2 mimic conjugate in procedure 1. For example, the following conjugates can be substituted:
(§2) A known amount of PGE-type compound in 0.1 ml. PBSG buffer at pH 7.4±0.2 and 0.1 ml. of the radiolabeled form of the same PGE-type compound (10,000 cpm/0.1 ml. PBSG) are introduced into a 12×75 mm. polypropylene tube. Antiserum (0.1 ml.) against the corresponding mimic is added at a dilution which will bind 50%±3% of the radiolabeled authentic PGE-type compound in the absence of competition from the unlabeled PGE-type compound. The tube is incubated for 1 hour at 25° and then 12-16 hours at 4°. Antibody bound and free fractions are separated with dextrancoated charcoal. Other separation techniques are acceptable.
(§3) The data below show the cross-reactivity of antiserum raised against 9-deoxy-9-methylene PGF2 to various PGE-type compounds, relative to PGE2. Percent cross-reaction is defined as (ng. of PGE2 required to displace 50% of [^3 H] PGE2)/(ng. heterologous PG required to displace 50% of [^3 H] PGE2)×100.

[2] = test system: antiserum raised against 9-deoxy-9-methylene PGF2 (KLH Conjugate); experiment: RIA cross-reactivity of antiserum raised against 9-deoxy-9-methylene PGF2, KLH conjugate; type: binding, Albino New Zealand rabbits; conditions: relative to PGE2; ng required to displace 50% of [3H]PGE2
Method: as §1, §2, §3

[3] = test system: antibodies against PGE1 -BSA conjugate (Example 6); conditions: Table 1 Example 6, conjugate PGE1 -BSA, PGE1 = 100; cited from earlier work
[4] = test system: antibodies against PGE2 -BSA conjugate (Example 3); conditions: Table II Example 3, conjugate PGE2 -BSA, PGE2 = 100; cited from earlier work
[5] = test system: antibodies against PGE1 -BSA conjugate (Example 7); conditions: Table 1 Example 7, conjugate PGE1 -BSA, PGE1 = 100; cited from earlier work
[6] = test system: antibodies against PGE1 -poly-1-lysine conjugate; conditions: Table 1 Example 2, conjugate PGE1 -poly-1-lysine, PGE1 = 100; cited from earlier work
[7] = test system: antibodies against PGE1 -BSA conjugate (Example 4); conditions: Table 1 Example 4, conjugate PGE1 -BSA, PGE1 = 100; cited from earlier work
[8] = test system: antibodies against PGE1 -BSA conjugate (Example 5); conditions: Table 1 Example 5, conjugate PGE1 -BSA, PGE1 = 100; cited from earlier work
[9] = test system: antibodies against PGE2 -BSA conjugate (Example 1); conditions: Table II Example 1, conjugate PGE2 -BSA, PGE2 = 100; cited from earlier work
[10] = test system: antibodies against PGE2 -BSA conjugate (Example 5); conditions: Table II Example 5, conjugate PGE2 -BSA, PGE2 = 100, cited from earlier work
[11] = test system: antibodies against PGE2 -hen gamma globulin conjugate; conditions: Table II Example 4, conjugate PGE2 -hen gamma globulin, PGE2 = 100; cited from earlier work
[12] = test system: antibodies against PGE1 -porcine gamma globulin conjugate; conditions: Table 1 Example 3, conjugate PGE1 -porcine gamma globulin, PGE1 = 100; cited from earlier work
[13] = test system: antibodies against PGE1 -thyroglobulin conjugate; conditions: Table 1 Example 1, conjugate PGE1 -thyroglobulin, PGE1 = 100; cited from earlier work
[14] = test system: antibodies against PGE2 -KLH conjugate; conditions: Table II Example 2, conjugate PGE2 -KLH, PGE2 = 100; cited from earlier work
[15] = aqueous solution at room temperature; cited from earlier work

CCCCC[C@H](O)/C=C/[C@@H]1[C@@H](CC(=O)CCCCC(=O)O)[C@@H](O)C[C@H]1O [6-keto-PGF1 α]
% Cross-Reaction BSA Conjugate [1]: 0.50%
% Cross-Reaction KLH Conjugate [2]: 0.10%

C=C1C[C@@H](O)[C@H](/C=C/[C@@H](O)CCCCC)[C@H]1C/C=C\CCCC(=O)O [9-deoxy-9-methylene PGF2, 9-deoxy-9-methylene-PGF2]
% Cross-Reaction BSA Conjugate [1]: 100%
% Cross-Reaction KLH Conjugate [2]: 100%

CCCCCC(=O)CC[C@H]1[C@H](O)CC(=O)[C@@H]1C/C=C\CCCC(=O)O [13,14-dihydro-15-keto-PGE2, 13,14-dihydro-15-keto-PGE]
% Cross-Reaction BSA Conjugate [1]: 0.2%
% Cross-Reaction KLH Conjugate [2]: 0.03%

CCCCCC(=O)CC[C@@H]1[C@@H](C/C=C\CCCC(=O)O)[C@@H](O)C[C@H]1O [13,14-dihydro-15-keto-PGF2 α]
% Cross-Reaction BSA Conjugate [1]: 0.01%
% Cross-Reaction KLH Conjugate [2]: 0.10%

CCCCC[C@H](O)CC[C@H]1[C@H](O)CC(=O)[C@@H]1C/C=C\CCCC(=O)O [13,14-dihydro-PGE2]
% Cross-Reaction BSA Conjugate [1]: 3.6%
% Cross-Reaction KLH Conjugate [2]: 1.6%

CCCCC[C@H](O)CC[C@@H]1[C@@H](C/C=C\CCCC(=O)O)[C@@H](O)C[C@H]1O [13,14-dihydro-PGF2 α]
% Cross-Reaction BSA Conjugate [1]: 0.2%
% Cross-Reaction KLH Conjugate [2]: 0.34%

CCCCCC(=O)/C=C/[C@H]1[C@H](O)CC(=O)[C@@H]1C/C=C\CCCC(=O)O [15-keto-PGE2]
% Cross-Reaction BSA Conjugate [1]: 2.5%
% Cross-Reaction KLH Conjugate [2]: 0.03%

CCCCCC(=O)/C=C/[C@@H]1[C@@H](C/C=C\CCCC(=O)O)[C@@H](O)C[C@H]1O [15-keto-PGF2 α]
% Cross-Reaction BSA Conjugate [1]: 0.2%
% Cross-Reaction KLH Conjugate [2]: 0.01%

CCCCC[C@H](O)/C=C/[C@H]1C=CC(=O)[C@@H]1CCCCCCC(=O)O [PGA1]
% Cross-Reaction BSA Conjugate [1]: 4.9%
% Cross Reaction [3]: 10,000%
% Cross Reaction [4]: 200%
% Cross Reaction [5]: 6%
% Cross Reaction [6]: 220%
% Cross Reaction [7]: 100%
% Cross-Reaction KLH Conjugate [2]: 0.08%
% Cross Reaction [8]: 25%
% Cross Reaction [9]: 7%

CCCCC[C@H](O)/C=C/[C@H]1C=CC(=O)[C@@H]1C/C=C\CCCC(=O)O [PGA2]
% Cross-Reaction BSA Conjugate [1]: 2.8%
% Cross Reaction [3]: 1000%
% Cross Reaction [4]: 400%
% Cross Reaction [6]: 440%
% Cross Reaction [7]: 100%
% Cross-Reaction KLH Conjugate [2]: 0.75%
% Cross Reaction [8]: 10%
% Cross Reaction [9]: 7%
% Cross Reaction [10]: 550%
% Cross Reaction ([10]; listed as A2): recognized preferentially
% Cross Reaction [11]: 3%

CCCCC[C@H](O)/C=C/C1=C(CCCCCCC(=O)O)C(=O)CC1 [PGB1]
% Cross-Reaction BSA Conjugate [1]: 0.1%
% Cross Reaction [3]: 100,000%
% Cross Reaction [5]: 66%
% Cross Reaction [6]: 31,000%
% Cross Reaction [12]: 10%
% Cross-Reaction KLH Conjugate [2]: 0.005%

CCCCC[C@H](O)/C=C/C1=C(C/C=C\CCCC(=O)O)C(=O)CC1 [PGB2]
% Cross-Reaction BSA Conjugate [1]: 0.0%
% Cross Reaction [3]: 50,000%
% Cross Reaction [6]: 8,500%
% Cross Reaction [7]: 100%
% Cross-Reaction KLH Conjugate [2]: 0.009%
% Cross Reaction [9]: 7%
% Cross Reaction [10]: 580%
% Cross Reaction ([10]; listed as B2): recognized preferentially

CCCCC[C@H](O)/C=C/[C@H]1C(=O)C[C@H](O)[C@@H]1CCCCCCC(=O)O [PGD1]
% Cross-Reaction BSA Conjugate [1]: 4.9%
% Cross-Reaction KLH Conjugate [2]: 0.02%

CCCCC[C@H](O)/C=C/[C@H]1C(=O)C[C@H](O)[C@@H]1C/C=C\CCCC(=O)O [PGD2]
% Cross-Reaction BSA Conjugate [1]: 10.0%
% Cross-Reaction KLH Conjugate [2]: 0.02%

CCCCC[C@H](O)/C=C/[C@H]1[C@H](O)CC(=O)[C@@H]1CCCCCCC(=O)O [PGE1]
% Cross-Reaction BSA Conjugate [1]: 100%
% Cross Reaction [3]: 100%
% Cross Reaction [4]: 73%
% Cross Reaction [5]: 100%
% Cross Reaction [6]: 100%
% Cross Reaction [12]: 100%
% Cross Reaction [7]: 100%
% Cross-Reaction KLH Conjugate [2]: 90%
% Cross Reaction [8]: 100%
% Cross Reaction [9]: 10%
% Cross Reaction [13]: 100%
% Cross Reaction [14]: 110%
% Cross Reaction [10]: 55%
% Cross Reaction [11]: 15%

CCCCC[C@H](O)/C=C/[C@H]1[C@H](O)CC(=O)[C@@H]1C/C=C\CCCC(=O)O [PGE2, prostaglandin E2]
% Cross Reaction [3]: 90%
% Cross Reaction [4]: 100%
% Cross Reaction [6]: 10%
% Cross Reaction [7]: 100%
% Cross Reaction [9]: 100%
% Cross Reaction [13]: 20%
% Cross Reaction [14]: 100%
% Cross Reaction [10]: 100%
% Cross Reaction [11]: 100%

CCCCC[C@H](O)/C=C/[C@@H]1[C@@H](CCCCCCC(=O)O)[C@H](O)C[C@H]1O [PGF1 β]
% Cross-Reaction BSA Conjugate [1]: 5.0%
% Cross-Reaction KLH Conjugate [2]: 0.30%

CCCCC[C@H](O)/C=C/[C@@H]1[C@@H](C/C=C\CCCC(=O)O)[C@@H](O)C[C@H]1O [PGF2 α]
% Cross-Reaction BSA Conjugate [1]: 1.5%
% Cross-Reaction KLH Conjugate [2]: 0.20%

CCCCC[C@H](O)/C=C/[C@@H]1[C@@H](C/C=C\CCCC(=O)O)[C@H](O)C[C@H]1O [PGF2 β]
% Cross-Reaction BSA Conjugate [1]: 4.4%
% Cross-Reaction KLH Conjugate [2]: 3.0%

CCCCC[C@H](O)/C=C/[C@@H]1[C@@H](C/C=C\CCCC(=O)O)[C@@H]2C[C@H]1OO2 [PGH2]
half-life [15]: approximately five

PGB3
% Cross Reaction [4]: 62%
% Cross Reaction [9]: 7%

PGE1 α
% Cross-Reaction BSA Conjugate [1]: 2.9%
% Cross-Reaction KLH Conjugate [2]: 0.09%
